Laboratory results as given in US9663543B2 (priority 2014, dated 2017).

Target: Human factor D (Homo sapiens (Human), UniProt P00746)
Assay type: biochemical

Human factor D, sequence (P00746 26-253 limits assumed): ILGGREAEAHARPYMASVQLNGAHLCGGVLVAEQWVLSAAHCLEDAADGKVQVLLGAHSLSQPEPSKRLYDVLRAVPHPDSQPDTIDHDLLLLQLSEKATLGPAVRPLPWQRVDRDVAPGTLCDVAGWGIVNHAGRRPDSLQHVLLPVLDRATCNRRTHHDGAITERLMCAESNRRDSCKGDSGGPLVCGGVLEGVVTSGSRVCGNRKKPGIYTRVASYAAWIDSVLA

SMILES | IC50
CCOP(=O)(c1ccccc1)c1ccc2c(C(C)=O)cn(CC(=O)N3C[C@H](F)C[C@H]3C(=O)NCc3cccc(Cl)c3F)c2c1 (stereo partly drawn) [Compound 23, ethyl 3-acetyl-1-(2-((2S,4R)-2-(3-chloro-2-fluorobenzylcarbamoyl)-4-fluoropyrrolidin-1-yl)-2-oxoethyl)-1H-indol-6-yl(phenyl)phosphinate] | < 1 µM
CCP(=O)(O)c1ccc2c(C(C)=O)cn(CC(=O)N3C[C@H](F)C[C@H]3C(=O)NCc3cccc(Cl)c3F)c2c1 [Compound 27, 3-acetyl-1-(2-((2S,4R)-2-(3-chloro-2-fluorobenzylcarbamoyl)-4-fluoropyrrolidin-1-yl)-2-oxoethyl)-1H-indol-6-yl(ethyl)phosphinic acid] | < 1 µM
CCOP(=O)(OCC)c1ccc2c(C(=O)OC)cn(CC(=O)N3C[C@H](F)C[C@H]3C(=O)NCc3cccc(Cl)c3F)c2c1 [Compound 13, methyl 1-(2-((2S,4R)-2-(3-chloro-2-fluorobenzylcarbamoyl)-4-fluoropyrrolidin-1-yl)-2-oxoethyl)-6-(diethoxyphosphoryl)-1H-indole-3-carboxylate] | < 1 µM
COC(=O)c1cn(CC(=O)N2C[C@H](F)C[C@H]2C(=O)NCc2cccc(Cl)c2F)c2cc(P(=O)(O)O)ccc12 [Compound 14, 1-(2-((2S,4R)-2-(3-chloro-2-fluorobenzylcarbamoyl)-4-fluoropyrrolidin-1-yl)-2-oxoethyl)-3-(methoxycarbonyl)-1H-indol-6-ylphosphonic acid] | < 1 µM
CCOP(=O)(CC)c1ccc2c(C(C)=O)cn(CC(=O)N3C[C@H](F)C[C@H]3C(=O)NCc3cccc(Cl)c3F)c2c1 (stereo partly drawn) [Compound 24, ethyl 3-acetyl-1-(2-((2S,4R)-2-(3-chloro-2-fluorobenzylcarbamoyl)-4-fluoropyrrolidin-1-yl)-2-oxoethyl)-1H-indol-6-yl(ethyl)phosphinate] | < 1 µM
